Measured values from US6429202B1, “Phospholipid complexes of proanthocyanidin A2 as antiatherosclerotic agents” (Indena S.p.A., priority 1998, dated 2002).

Test system: atherosclerotic lesions on thoracic and abdominal aorta
Experiment: Atherosclerotic lesions in rabbits fed a hypercholesterolemic diet
Type: in vivo, New Zealand rabbits
Conditions: hypercholesterolemic diet (0.2% w/w cholesterol), substance in diet, 8 week-treatment, aorta stained with Sudan IV
Description: The complexes of the invention dose-dependently prevent or reduce the formation of, atherosclerotic plaques. The activity was evidenced in rabbits fed with a hypercholesterolemic diet so as to induce atherosclerotic lesions similar to the human ones at the vasal level, particularly at the aortal arch, ventral aorta, carotids and cerebral vessels. In said model, the above mentioned phospholipid complexes change the macro- and microscopical vascular condition reducing, compared with untreated animals, both the number and the severity of the atheromatous plagues, with surprising vascular-tissutal benefit.
32 New Zealand rabbits were divided in 4 groups of 8 animals each, and treated as follows:
Group 1): Control, normal diet
Group 2): Hypercholesterolemic diet (0.2% w/w cholesterol)
Group 3): Hypercholesterolemic diet+phospholipid complex of proanthocyanidin A2 extract (0.2% cholesterol+2% w/w complex of Example 1).
Group 4): Hypercholesterolemic diet+proanthocyanidin A2 extract (0.2% cholesterol+amount of proanthocyanidin A2 equivalent to that present in 2% w/w of the complex of Example 1). After 8 week-treatment, during which cholesterol, LDL/VLDL, HDL and triglycerids levels were measured, the animals were killed.
The number, size and distribution of the atherosclerotic lesions on thoracic and abdominal aorta were evaluated. […]

Structure (SMILES): Oc1cc(O)c2c(c1)O[C@@]1(c3ccc(O)c(O)c3)Oc3cc(O)c4c(c3C2[C@H]1O)OC(c1ccc(O)c(O)c1)[C@H](O)C4 (stereo partly shown) [proanthocyanidin A2]
- area percent of the lesion: 30%
